Patent US8071625B2, “Certain chemical entities, compositions, and methods” (Cytokinetics, Inc., priority 2006, dated 2011)

Target: T1, crosslinked smooth muscle actomyosin (chicken gizzard smooth muscle myosin subfragment-1 crosslinked to cardiac or skeletal actin) (Gallus gallus, UniProt P10587)
T1 construct: chicken gizzard smooth muscle myosin subfragment-1; from tissue; host or cells: chicken gizzard
Test: Lead optimization pyruvate kinase/horseradish peroxidase/pyruvate oxidase-coupled ATPase assay (compound dose response)
Assay type: biochemical
Settings: read-out: IC50 Arithmetic Mean
Outline: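 IC50 is the midpoint of a 4-parameter dose–response fit of Amplex Red fluorescence (480/615 nm). Buffer was 12 mM potassium PIPES pH 7.00 at 22 °C with 100 mM KCl, 2 mM MgCl2, 0.15 mM ATP and 2 mM phosphate, with PK/pyruvate oxidase/HRP coupling. Enzyme: smooth muscle myosin S1 crosslinked to cardiac or skeletal actin, dosed empirically by activity.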

SMILES	IC50 [nM]
CCc1ccc(NC(=O)CCC2(C(=O)NCc3ccccc3C)CCN(C(=O)CN)CC2)cc1 [3-(1-(2-aminoacetyl)-4-{N-[(2-methylphenyl)methyl]carbamoyl}(4-piperidyl))-N-(4-ethylphenyl)propanamide]	15300
CCc1ccc(NC(=O)OCC2(C(=O)NCc3ccccc3C)CCN(C(=O)CNC(=O)OC(C)(C)C)CC2)cc1 [(tert-butoxy)-N-[2-(4-{[N-(4-ethylphenyl)carbamoyloxy]methyl}-4-{N-[(2-methylphenyl)methyl]carbamoyl}piperidyl)-2-oxoethyl]carboxamide]	975
CN(CCN(CCOC(=O)Nc1ccc(C(F)(F)F)cc1)C(=O)NCc1ccccc1Cl)C(=O)CN [2-amino-N-{2-[{[(2-chlorophenyl)methyl]amino}-N-(2-{N-[4-(trifluoromethyl)phenyl]carbamoyloxy}ethyl)carbonylamino]ethyl}-N-methylacetamide]	15000
CCc1ccc(NC(=O)OCC2(C(=O)NCc3ccccc3C)CCN(C(=O)CN)CC2)cc1 [(1-(2-aminoacetyl)-4-{[N-(4-ethylphenyl)carbamoyloxy]methyl}(4-piperidyl))-N-[(2-methylphenyl)methyl]carboxamide]	167
CCc1ccc(NC(=O)OCC2(C(=O)NCc3ccccc3Cl)CCN(C(=O)C(CO)NC(=O)OC(C)(C)C)CC2)cc1 (stereo not shown) [(tert-butoxy)-N-[2-(4-{N-[(2-chlorophenyl)methyl]carbamoyl}-4-{[N-(4-ethylphenyl)carbamoyloxy]methyl}piperidyl)-1-(hydroxymethyl)-2-oxoethyl]carboxamide]	661
CCc1ccc(NC(=O)OCC(C)(CCN)C(=O)NCc2ccccc2Cl)cc1 (stereo not shown) [4-amino-N-[(2-chlorophenyl)methyl]-2-{[N-(4-ethylphenyl)carbamoyloxy]methyl}-2-methylbutanamide]	1740
CCc1ccc(NC(=O)OCCN(C)C(=O)CCc2ccccc2Cl)cc1 [3-(2-chlorophenyl)-N-{2-[N-(4-ethylphenyl)carbamoyloxy]ethyl}-N-methylpropanamide]	875
CCc1ccc(NC(=O)OCC2(C(=O)NCc3cccc(F)c3)CCN(C(=O)CNC(=O)OC(C)(C)C)CC2)cc1 [[(1-{2-[(tert-butoxy)carbonylamino]acetyl}-4-{N-[(3-fluorophenyl)methyl]carbamoyl}(4-piperidyl))methoxy]-N-(4-ethylphenyl)carboxamide]	8240
O=C(Nc1cc(Cl)cc(Cl)c1)OCC1(C(=O)NCc2ccccc2Cl)CCOCC1 [(4-{[N-(3,5-dichlorophenyl)carbamoyloxy]methyl}(2H-3,4,5,6-tetrahydropyran-4-yl))-N-[(2-chlorophenyl)methyl]carboxamide]	18300
CCc1ccc(NC(=O)N(CCCOC)CC2(C(=O)NCc3ccccc3Cl)CCN(C(=O)CN)CC2)cc1 [N-[(1-(2-aminoacetyl)-4-{N-[(2-chlorophenyl)methyl]carbamoyl}(4-piperidyl))methyl][(4-ethylphenyl)amino]-N-(3-methoxypropyl)carboxamide]	12400
CCc1ccc(NC(=O)OCC(C)(CCNC(C)=O)C(=O)NCc2ccccc2Cl)cc1 (stereo not shown) [4-(acetylamino)-N-[(2-chlorophenyl)methyl]-2-{[N-(4-ethylphenyl)carbamoyloxy]methyl}-2-methylbutanamide]	742
CCc1ccc(NC(=O)OCC2(C(=O)NCc3ccc(F)cc3)CCN(C(=O)CNC(=O)OC(C)(C)C)CC2)cc1 [[(1-{2-[(tert-butoxy)carbonylamino]acetyl}-4-{N-[(4-fluorophenyl)methyl]carbamoyl}(4-piperidyl))methoxy]-N-(4-ethylphenyl)carboxamide]	10100
CCc1ccc(NC(=O)OCC(C)(NC(C)=O)C(=O)NCc2ccccc2Cl)cc1 (stereo not shown) [2-(acetylamino)-N-[(2-chlorophenyl)methyl]-3-[N-(4-ethylphenyl)carbamoyloxy]-2-methylpropanamide]	3140
CCc1ccc(NC(=O)OCC2(C(=O)NCc3ccccc3Cl)CCN(C(=O)[C@@H](C)N)CC2)cc1 [(1-((2R)-2-aminopropanoyl)-4-{[N-(4-ethylphenyl)carbamoyloxy]methyl}(4-piperidyl))-N-[(2-chlorophenyl)methyl]carboxamide]	255

Second part, the compound after the results:

IC50 [nM]	SMILES
486	CCc1ccc(NC(=O)OCC2(C(=O)NCc3ccccc3Cl)CCN(C(=O)COC)CC2)cc1 [N-[(2-chlorophenyl)methyl](4-{[N-(4-ethylphenyl)carbamoyloxy]methyl}-1-(2-methoxyacetyl)(4-piperidyl))carboxamide]
6390	CCOC(=O)c1ccc(NC(=O)OCC2(C(=O)NCc3ccccc3Cl)CCOCC2)cc1 [ethyl 4-{[(4-{N-[(2-chlorophenyl)methyl]carbamoyl}-2H-3,4,5,6-tetrahydropyran-4-yl)methoxy]carbonylamino}benzoate]
238	CCc1ccc(NC(=O)OCC2(C(=O)NCc3ccccc3Cl)CCCCC2)cc1 [N-[(2-chlorophenyl)methyl]({[N-(4-ethylphenyl)carbamoyloxy]methyl}cyclohexyl)carboxamide]
14200	Cc1cccc(F)c1NC(=O)OCC1(C(=O)NCc2ccccc2Cl)CCOCC1 [N-[(2-chlorophenyl)methyl](4-{[N-(6-fluoro-2-methylphenyl)carbamoyloxy]methyl}(2H-3,4,5,6-tetrahydropyran-4-yl))carboxamide]
5940	O=C(Nc1ccc(C(F)(F)F)cc1)OCC1(C(=O)NCc2ccccc2Cl)CCNCC1 [N-[(2-chlorophenyl)methyl][4-({N-[4-(trifluoromethyl)phenyl]carbamoyloxy}methyl)(4-piperidyl)]carboxamide]
262	CCc1ccc(NC(=O)OCC2(C(=O)NCc3ccc(Cl)cc3F)CCN(C(=O)CN)CC2)cc1 [[(1-(2-aminoacetyl)-4-{N-[(4-chloro-2-fluorophenyl)methyl]carbamoyl}(4-piperidyl))methoxy]-N-(4-ethylphenyl)carboxamide]
1140	O=C(Nc1ccc(C(F)(F)F)cc1)OCC1(C(=O)NCc2ccccc2Cl)CCOCC1 [N-[(2-chlorophenyl)methyl][4-({N-[4-(trifluoromethyl)phenyl]carbamoyloxy}methyl)(2H-3,4,5,6-tetrahydropyran-4-yl)]carboxamide]
6280	CCc1ccc(NC(=O)OCC2(C(=O)NCc3ccccc3Cl)CCN(CC)CC2)cc1 [N-[(2-chlorophenyl)methyl](1-ethyl-4-{[N-(4-ethylphenyl)carbamoyloxy]methyl}(4-piperidyl))carboxamide]
1970	Cc1ccc(NC(=O)OCC2(C(=O)NCc3ccccc3Cl)CCN(C(=O)CN)CC2)cc1C(F)(F)F [[1-(2-aminoacetyl)-4-({N-[4-methyl-3-(trifluoromethyl)phenyl]carbamoyloxy}methyl)(4-piperidyl)]-N-[(2-chlorophenyl)methyl]carboxamide]
2260	CCc1ccc(NC(=O)OC2CCCN(C(=O)NCc3ccccc3Cl)C2)cc1 (stereo not shown) [N-[(2-chlorophenyl)methyl]{3-[N-(4-ethylphenyl)carbamoyloxy]piperidyl}carboxamide]
695	CCc1ccc(NC(=O)OCC2(C(=O)NCc3ccccc3Cl)CCN(C(=O)c3cccnc3)CC2)cc1 [N-[(2-chlorophenyl)methyl](4-{[N-(4-ethylphenyl)carbamoyloxy]methyl}-1-(3-pyridylcarbonyl)(4-piperidyl))carboxamide]
1630	CCc1ccc(NC(=O)OC[C@H](C)NC(=O)NCc2ccccc2Cl)cc1 [N-{(1S)-2-[N-(4-ethylphenyl)carbamoyloxy]-isopropyl}{[(2-chlorophenyl)methyl]amino}carboxamide]
213	CCc1ccc(NC(=O)OCC2(C(=O)NCc3ccccc3Cl)CCN(C(=O)CNC)CC2)cc1 [N-[(2-chlorophenyl)methyl](4-{[N-(4-ethylphenyl)carbamoyloxy]methyl}-1-[2-(methylamino)acetyl](4-piperidyl))carboxamide]
5230	CCc1ccc(NC(=O)NCC2(C(=O)NCc3ccccc3Cl)CC2)cc1 [N-[({N-[(2-chlorophenyl)methyl]carbamoyl}cyclopropyl)methyl][(4-ethylphenyl)amino]carboxamide]
198	CCc1ccc(NC(=O)OCC[C@H](C)N(C)C(=O)NCc2ccccc2Cl)cc1 [N-{(1S)-3-[N-(4-ethylphenyl)carbamoyloxy]-1-methylpropyl}{[(2-chlorophenyl)methyl]amino}-N-methylcarboxamide]
621	CCc1ccc(NC(=O)OCC(C)(C)N(C)C(=O)NCc2ccccc2Cl)cc1 [{[(2-chlorophenyl)methyl]amino}-N-{2-[N-(4-ethylphenyl)carbamoyloxy]-tert-butyl}-N-methylcarboxamide]
440	NCC(=O)N1CCC(COC(=O)Nc2ccc(C(F)(F)F)cc2Cl)(C(=O)NCc2ccccc2Cl)CC1 [[1-(2-aminoacetyl)-4-({N-[2-chloro-4-(trifluoromethyl)phenyl]carbamoyloxy}methyl)(4-piperidyl)]-N-[(2-chlorophenyl)methyl]carboxamide]
86	CCc1ccc(NC(=O)OCC2(C(=O)NCc3ccccc3C(F)(F)F)CCN(C(=O)CN)CC2)cc1 [{[1-(2-aminoacetyl)-4-(N-{[2-(trifluoromethyl)phenyl]methyl}carbamoyl)(4-piperidyl)]methoxy}-N-(4-ethylphenyl)carboxamide]
275	CCc1ccc(NC(=O)OCC2(C(=O)NCc3ccccc3Cl)CCN(C(=O)C(C)(CO)CO)CC2)cc1 [N-[(2-chlorophenyl)methyl](4-{[N-(4-ethylphenyl)carbamoyloxy]methyl}-1-[3-hydroxy-2-(hydroxymethyl)-2-methylpropanoyl](4-piperidyl))carboxamide]
456	O=C(Nc1ccc(C(F)(F)F)cc1)OCC1(C(=O)NCc2ccccc2Cl)CCN(C(=O)CO)CC1 [N-[(2-chlorophenyl)methyl][1-(2-hydroxyacetyl)-4-({N-[4-(trifluoromethyl)phenyl]carbamoyloxy}methyl)(4-piperidyl)]carboxamide]
